The source of these data is PubChem BioAssay AID1507 (NMMLSC, 2009).

Calls of active or inactive are those of the source. No rule for the calls is given here.

The term inhibition denotes the share of the control response that was lost under treatment.

This assay has as its system S. aureus strains, alpha hemolysin production inhibition. Briefly: inhibition of S. aureus alpha hemolysin production, S. aureus quorum sensing inhibitors, NM300, NM400, MRSA3757 (AID 1507). To be noted: for inhibition: stronger effect = higher value.
[1] abbreviates: hemolysin inhibition, MRSA3757, at 12 µM.
[2] abbreviates: hemolysin inhibition, strain NM400, at 12 µM.

With `CC1CCCN(C(C(=O)Nc2ccc3c(c2)OCCO3)c2ccccc2)C1` (stereo not given), the outcome (at 12 µM) is “inactive; agr3 active”. Moreover, the inhibition is, setting by setting: under setting [1], 20%; under setting [2], 57%.
With `CCc1oc2ccccc2c1C(=O)c1cc(Br)c(O)c(Br)c1`, the inhibition by setting is: (at 6 µM) 100%; (hemolysin inhibition, strain NM300, at 6 µM) 100%.
With `Cc1c(Cl)cccc1Nc1ccccc1C(=O)O`, the inhibition (at 30 µM) was 99% and the inhibition (hemolysin inhibition, strain NM300, at 30 µM) came out at 100%.
For the molecule `CC1CCCN(C(C(=O)Nc2ccc3c(c2)OCO3)c2ccccc2)C1` (stereo not given), for the setting “at 12 µM”, the outcome is “inactive; agr3 active”. Further, the inhibition reads like this: under setting [1], 15%; under setting [2], 55%.
